Results: paper PMC1769465, “Toxicity Assays in Nanodrops Combining Bioassay and Morphometric Endpoints” (PLoS ONE, 2007)
Like-named read-outs stand apart in the source and are kept apart here.

Legend:
[1] = tested on: HepG2 A10/hsp22 stress inducible clone; assay: cells; type: cell-based, human
[2] = tested on: Drosophila melanogaster hsp22 promoter; type: cell-based; settings: for IC50: read-out: IC50 derived from KS curves, EGFP expression
[3] = tested on: HepG2 A10/hsp22 stress inducible clone; assay: cells; settings: Homo sapiens, HepG2, read-out: IC50 (Cell Number)
[4] = tested on: HepG2 A10/hsp22 stress inducible clone; settings: for IC50: read-out: IC50 (Cell Number)
HepG2 cells [5] = tested on: HepG2 cells; design: method as in PMID 16111842; settings: read-out: IC50, neutral red quantification, cited from earlier work
HeLa cells = settings: cited from earlier work
HepG2 cells [6] = tested on: HepG2 cells; design: method as in PMID 16111842; settings: read-out: IC50, MTT assay, cited from earlier work
[7] = tested on: EGFP expressing stress inducible clones; design: method as in PMID 16492392; settings: 6 h toxic induction combined with a 12–18 h recovery period; read-out: IC50 in 96 well format assays; cited from earlier work
HepG2 cells [8] = settings: cited from earlier work
hsp22 promoter = settings: cited from earlier work
[9] = […], linear regression, two independent experiments
[10] = calculated on Kolmogorov-Smirnov score curves
[11] = same stress inducible clones, 96-well format

Molecule: C[n+]1ccc(-c2cc[n+](C)cc2)cc1 [Paraquat]
- IC50 ([1]; Homo sapiens, HepG2, 6 h, […], linear regression, two independent experiments, read-out: IC50 for Cell Area): 44 µM
- IC50 for Shape Index [1, 9]: 29 µM
- Shape Index effect (in words) ([1]; compared with Arsenate and Cadmium): did not induce as significant a decrease of this index
- Cell Roundness effect (in words) ([1]; compared with heavy metals): produced a less significant effect
- Cell Area after toxic insult (cell shrinkage) ([1]; decrease from around 900 µm^2): 700 µm^2
- EGFP expression with hsp22 promoter (in words) ([2]; HepG2 A10 clone, 0.5 µM to 1 mM): did not induce any significant EGFP expression
- IC50 [3]: 88 µM
- doses giving an obvious decrease in cell number ([4]; human): greater than 20 µM

Molecule: [Cl][Cd][Cl] [CdCl2, Cadmium chloride]
- IC50 (HepG2 cells [5]; HepG2, 5 h exposure): 100 µM
- IC50 (HepG2 cells [5]; HepG2, 8 h exposure): 80 µM
- IC50 (HepG2 cells [5]; HepG2, 24 h exposure): 8 µM
- concentrations causing a decrease in Shape Index ([1]; HepG2 A10 clone): above 20 µM
- IC50 for Shape Index [1, 9]: 32 µM
- IC50 ([1]; […], linear regression, two independent experiments, read-out: IC50 for Cell Area): 29 µM
- IC50 ([1]; […], linear regression, two independent experiments, read-out: IC50 for Cell Roundness): 52 µM
- IC50 derived from KS curves, Shape Index [1, 10]: 48 µM
- IC50 ([1]; calculated on Kolmogorov-Smirnov score curves, read-out: IC50 derived from KS curves, Cell Area): 25 µM
- IC50 ([1]; calculated on Kolmogorov-Smirnov score curves, read-out: IC50 derived from KS curves, Roundness): 60 µM
- Cell Area after toxic insult (cell shrinkage) ([1]; decrease from around 900 µm^2): around 400 µm^2
- dose at which increase in Cell Roundness occurred ([1]; late dose, particularly with cadmium): 100 µM
- dose at which EGFP expression could be detected [2]: 50 µM
- dose at which hsp22 promoter activation (EGFP) disappeared [2]: 100 µM
- dose of maximum activation of hsp22 promoter (EGFP expression) [2]: around 50 µM
- IC50 [2, 10]: 28 µM
- CC50 (HeLa cells): 50 µM
- IC50 (HepG2 cells [6]; HepG2, 3 h exposure): 500 µM
- IC50 (HepG2 cells [6]; HepG2, 5 h exposure): 100 µM
- IC50 (HepG2 cells [6]; HepG2, 8 h exposure): 40 µM
- IC50 (HepG2 cells [6]; HepG2, 24 h exposure): 15 µM
- IC50 [7]: 50 µM
- doses giving an obvious decrease in cell number [4]: greater than 20 µM
- IC50 [4, 9]: 83 µM
- concentration that elicited mild (20–25%) cytotoxicity (HepG2 cells [8]; HepG2, 24 h exposure): 40 µM
- concentration that elicited minimal (≤5%) cytotoxicity (HepG2 cells [8]; HepG2, 24 h exposure): 15 µM
- concentration that elicited more severe (approximately 50%) cytotoxicity (HepG2 cells [8]; HepG2, 24 h exposure): 60 µM
- IC50 (HepG2 cells [8]; read-out: IC50 for cytotoxicity, HepG2, 24 h exposure): 60 to 70 µM
- induction windows (hsp22 promoter; reported): 10 to 100 µM
- concentration over which promoter activity gradually decreased (hsp22 promoter; [11]): over 60 µM
- peak expression of EGFP (concentration) (hsp22 promoter; [11]): around 50 µM

Molecule: Sodium arsenate
- Cell Area after toxic insult (cell shrinkage) [1]: around 400 µm^2
- IC50 derived from KS curves, Roundness [1]: no significant Roundness effect
- IC50 derived from KS curves, Shape Index [1]: 32 µM
- IC50 for Shape Index [1]: 24 µM
- concentrations causing a decrease in Shape Index [1]: above 20 µM
- dose after which Shape Index distribution was significantly different from control (KS) [1]: > 50 µM
- dose at which Cell Area reached the KS score 0.2 threshold [1]: 5 µM
- dose at which increase in Cell Roundness occurred [1]: 100 µM
- IC50 ([1]; read-out: IC50 derived from KS curves, Cell Area): 19 µM
- IC50 ([1]; read-out: IC50 for Cell Area): 29 µM
- IC50 ([1]; read-out: IC50 for Cell Roundness): 59 µM
- dose at which EGFP Grey Level reached the KS score 0.2 threshold [2]: 10 µM
- dose at which EGFP expression could be detected [2]: 20 µM
- dose at which hsp22 promoter activation (EGFP) disappeared [2]: 100 µM
- IC50 [2]: 19 µM
- doses giving an obvious decrease in cell number [4]: greater than 20 µM
- IC50 [4]: 85 µM
- IC50 (HepG2 cells [8]): 60 to 70 µM
- concentration that elicited mild (20–25%) cytotoxicity (HepG2 cells [8]): 55 µM
- concentration that elicited minimal (≤5%) cytotoxicity (HepG2 cells [8]): 15 µM
- concentration that elicited more severe (approximately 50%) cytotoxicity (HepG2 cells [8]): 70 µM
- induction windows (hsp22 promoter): 10 to 100 µM
